# Article PMC5979480 (International Journal of Molecular Sciences, 2018)
# Assays:
# [1] = system: 6-OHDA hemi-parkinsonian (PD) rats; assay: Apomorphine-induced contralateral rotation; format: in vivo, Sprague-Dawley rats
# Description: (§1) Modified surgical procedures were based on our previously described methods. Under Zoletil-Rumpun (10 mg/kg: 2 mg/kg, i.p.) anesthesia, SD rats were placed in a stereotaxic frame with the nose bar positioned 3.3 mm below the interaural line. Unilateral 6-hydroxydopamine (6-OHDA, 8 μg dissolved in 0.9% saline with 0.02% ascorbic acid) was injected for DA lesions into the left median forebrain bundle (MFB, coordinates: anteroposterior [49, 53], −4.3 mm; lateral (L), 1.6 mm from bregma; ventral (V), 8.2 mm from the dura).
# Apomorphine (0.5 mg/kg in 0.1% ascorbic acid, s.c.)-induced contralateral rotations were recorded using a digital video camera to count the number of rotations for 60 min at weekly intervals up to 4 weeks post-lesion (i.e., 7, 14, 21, and 28 days post-lesion) using the same test conditions. The net number of rotations was calculated (contralateral minus ipsilateral full turns). In unilaterally 6-OHDA lesioned animals, apomorphine-induced contralateral rotation is a well-established correlate of dopamine depletion, with rotation levels seen here indicative of an 80–90% loss.
# [2] = system: 6-OHDA hemi-parkinsonian (PD) rats; assay: Open-field test (locomotor and anxiety-like behavior); format: in vivo, Sprague-Dawley rats; conditions: 15 nmol/kg/day s.c. pump
# Description: as §1
# In addition to its well-known motor manifestations, PD is also known to elicit neuropsychiatric disorders such as anxiety. We thus used open field measurements in the lesioned animals, as well as in intact animals, to evaluate not only general motor activity but also anxiety-related exploratory activity. Rats were first habituated to an open field Plexiglas arena (60 × 60 × 100 cm) for 10 min at day 4 and 5 post-lesion. At day 6 post-lesion, locomotor activity and anxiety-like behavior were monitored for 10 min using open field tests. The rat behaviors were recorded using an EthoVision system. Total distance, velocity, and freezing times in the open-field were considered general locomotor activities. The number and retention times in the central zone of the open field were measured as anxiety-like behaviors. The center of the open field was defined as a 30 × 30 cm^2 in the geometric center of the arena.
# TBI injury in rats = conditions: 38.5 µg/kg/day GIP (equivalent to 7.8 nmol/kg/day); cited from earlier work
# [3] = in vivo; cited from earlier work
Compound,"Sensitization (progressive increase in apomorphine-induced rotations with repeated weekly tests) ([1]; 15 nmol/kg/day GIP, weekly tests up to 4 weeks post-lesion, time effect GIP p = 0.940)","Apomorphine-induced rotation, GIP vs saline ([1]; 15 nmol/kg/day s.c. pump for 2 weeks from 2 days pre-lesion, apomorphine 0.5 mg/kg s.c., 60 min, week 3 (p = 0.042) and week 4 (p = 0.019) post-6-OHDA, saline n = 9, GIP n = 10)","Initial levels of apomorphine-induced rotations ([1]; apomorphine 0.5 mg/kg, both lesioned groups (saline and GIP 15 nmol/kg/day))","Open-field locomotor behavior (total distance moved, velocity, freezing time) ([2]; 10 min open field post-lesion, GIP vs saline p = 0.031, 0.021, 0.034, saline n = 8, GIP15 n = 5, naïve n = 6)","Number of entries into the central zone, GIP vs saline ([2]; 10 min open field, p = 0.008)","Retention times in the central zone, GIP vs saline ([2]; 10 min open field, p = 0.218)",Effect on TBI injury (TBI injury in rats),Share of plasma levels reaching the brain [3] [%]
"CC[C@H](C)[C@H](NC(=O)[C@H](CO)NC(=O)[C@H](Cc1ccc(O)cc1)NC(=O)[C@H](CC(=O)O)NC(=O)[C@H](CO)NC(=O)[C@@H](NC(=O)[C@H](Cc1ccccc1)NC(=O)[C@@H](NC(=O)CNC(=O)[C@H](CCC(=O)O)NC(=O)[C@H](C)NC(=O)[C@@H](N)Cc1ccc(O)cc1)[C@@H](C)O)[C@@H](C)CC)C(=O)N[C@@H](C)C(=O)N[C@@H](CCSC)C(=O)N[C@@H](CC(=O)O)C(=O)N[C@@H](CCCCN)C(=O)N[C@H](C(=O)N[C@@H](Cc1c[nH]cn1)C(=O)N[C@@H](CCC(N)=O)C(=O)N[C@@H](CCC(N)=O)C(=O)N[C@@H](CC(=O)O)C(=O)N[C@@H](Cc1ccccc1)C(=O)N[C@H](C(=O)N[C@@H](CC(N)=O)C(=O)N[C@@H](Cc1c[nH]c2ccccc12)C(=O)N[C@@H](CC(C)C)C(=O)N[C@@H](CC(C)C)C(=O)N[C@@H](C)C(=O)N[C@@H](CCC(N)=O)C(=O)N[C@@H](CCCCN)C(=O)NCC(=O)N[C@@H](CCCCN)C(=O)N[C@@H](CCCCN)C(=O)N[C@@H](CC(N)=O)C(=O)N[C@@H](CC(=O)O)C(=O)N[C@@H](Cc1c[nH]c2ccccc12)C(=O)N[C@@H](CCCCN)C(=O)N[C@@H](Cc1c[nH]cn1)C(=O)N[C@@H](CC(N)=O)C(=O)N[C@H](C(=O)N[C@H](C(=O)N[C@@H](CCC(N)=O)C(=O)O)[C@@H](C)O)[C@@H](C)CC)C(C)C)[C@@H](C)CC [GIP, glucose-dependent insulinotropic polypeptide]",not seen,statistically significant differences,over 400,improved locomotor behavior to a level similar to the naïve group,significantly higher,trended to improve this deficit,effectively mitigated TBI injury,
Exenatide,,,,,,,,~2
